Earlier results in patent US20200129491A1, “METHODS OF TREATING BRAIN TUMORS USING COMBINATION THERAPY” (AGIOS PHARMACEUTICALS, INC., priority 2017, published 2020).
Where two headings read alike, the source gives them in different places.

What was measured:
mutant IDH1 proteins [1] = details: biochemical assays
mutant IDH1 proteins [2] = details: cellular assays
mIDH1-driven gliomas = details: some model systems; D. Rohle et al. Science 340:626-630 (2013)
mIDH1 cells = details: in vitro, mIDH1 glioma models; R. J. Molenaar et al., Cancer Research 75:4790-4802 (2015)

Compound	Inhibition of mutant IDH1 proteins (mutant IDH1 proteins [1])	Inhibition of mutant IDH1 proteins (mutant IDH1 proteins [2])	Growth of mIDH1-driven gliomas (mIDH1-driven gliomas)	Sensitivity of mIDH1 cells to radiation therapy (mIDH1 cells)	Inhibition of mutant IDH1 (mIDH1) (mutant IDH1 (mIDH1))
N#Cc1ccnc(N2C(=O)CC[C@H]2C(=O)N(c2cncc(F)c2)[C@H](C(=O)NC2CC(F)(F)C2)c2ccccc2Cl)c1 [Ivosidenib, (S)—N—((S)-1-(2-Chlorophenyl)-2-(3,3-difluorocyclobutylamino)-2-oxoethyl)-1-(4-cyanopyridin-2-yl)-N-(5-fluoropyridin-3-yl)-5-oxopyrrolidine-2-carboxamide]	inhibitor of mutant IDH1 proteins	inhibitor of mutant IDH1 proteins			
Cc1ccccc1C(C(=O)NC1CCCCC1)N(C(=O)Cn1ccnc1C)c1cccc(F)c1 (centres unmarked) [AGI-5198]			repress growth	desensitized to radiation therapy	inhibit
